Assay results taken from patent EP0720988A1, “Pseudopeptides containing trifluoromethyl substituted 2-azabicyclooctane” (BAYER AG, priority 1995, dated 1996).
Where a name gives a salt, the structure may show the parent alone. Read-outs that look alike come from different tables or passages of the source.

Experiments:
HIV-1-Protease [1] = biological target: T1, HIV-1-Protease (Human immunodeficiency virus type 1 group M subtype B, UniProt P04585); experiment: HIV-specific protease enzyme assay (purified HIV protease, synthetic peptide substrate, RP-HPLC analysis of cleavage products); assay type: biochemical; conditions: synthetic peptide imitating a Gag precursor cleavage site, 50% inhibition of protease activity
T1 construct: Gereinigte HIV-Protease wurde mit synthetischem Peptid
Source text: Es wurde überraschend gefunden, daß die Verbindungen der allgemeinen Formel (I) eine außerordentlich starke Wirkung gegen Retroviren besitzen. Dies wird mit einem HIV-spezifischen Protease-Enzymtest belegt.
Die Ergebnisse der unten aufgeführten Beispiele wurden nach dem in den folgenden Literaturangaben [vgl. Hansen, J., Billich, S., Schulze, T., Sukrow, S. and Mölling, K. (1988), EMBO Journal, Vol, 7, No. 6, pp. 1785 - 1791] beschriebenen HIV-Testsystem ermittelt: Gereinigte HIV-Protease wurde mit synthetischem Peptid, das eine Schnittstelle im Gag-Precursor-Protein imitiert und eine in vivo-Spaltstelle der HIV-Protease darstellt, inkubiert. Die entstandenen Spaltprodukte des synthetischen Peptids wurden über Reverse Phase High Performance Liquid Chromatography (RP-HPLC) analysiert. Die angegebenen IC50-Werte beziehen sich auf die Substanzkonzentration, die unter den oben aufgeführten Testbedingungen eine 50%ige Hemmung der Protease-Aktivität bewirkt.

HIV = HIV infection in cell culture (PBL), suppression of virus-induced syncytia formation; assay type: cell-based; conditions: 50% suppression of virus-induced syncytia, read between day 3 and 6 after infection
Experimental: HIV-Infektion in Zellkultur
Der HIV-Test wurde mit geringen Modifikationen nach der Methode von Pauwels et al. [vgl. Journal of Virological Methods 20, (1988), 309-321] durchgeführt.
Normale menschliche Blutlymphozyten (PBL's) wurden über Ficoll-Hypaque angereichert und im RPMI 1640, 20% fötales Kälberserum mit Phytohaemagglutinin (90 µg/ml) und Interleukin-2 (40 U/ml) stimuliert. Zur Infektion mit dem in-fektiösen HIV wurden PBL's pelletiert und das Zellpellet wurde anschließend in 1 ml HIV-Virusadsorptionslösung suspendiert und 1 Stunde bei 37°C inkubiert.
Die Virusadsorptionslösung wurde zentrifugiert und das infizierte Zellpellet in Wachstumsmedium aufgenommen, so daß 1 x 10^5 Zellen pro ml eingestellt waren. Die derart infizierten Zellen wurden zu 1 x 10^4 Zellen/Napf in die Näpfe von 96er Mikrotiterplatten pipettiert.
Die erste vertikale Reihe der Mikrotiterplatte enthielt nur Wachstumsmedium und Zellen, die nicht infiziert, aber ansonsten genauso wie oben beschrieben, behandelt worden waren (Zellkontrolle). Die zweite vertikale Reihe der Mikrotiterplatte erhielt nur HIV-infizierte Zellen (Viruskontrolle) in Wachstumsmedium. Die übrigen Näpfe enthielten die erfindungsgemäßen Verbindungen in unterschiedlichen Konzentrationen, ausgehend von den Näpfen der 3. vertikalen Reihe der Mikrotiterplatte, von der die Prüfsubstanzen in 2er Schritten 2^10fach verdünnt wurden.
Die Testansätze wurden so lange bei 37°C inkubiert, bis in der unbehandelten Viruskontrolle die für das HIV typische Syncytienbildung auftrat (zwischen Tag 3 und 6 nach Infektion), die dann mikroskopisch ausgewertet wurde. In der unbehandelten Viruskontrolle resultierten unter diesen Testbedingungen etwa 20 Syncytien, währen die unbehandelte Zellkontrolle keine Syncytien aufwies.
Die IC50-Werte wurden als die Konzentration der behandelten und infizierten Zellen ermittelt, bei der 50% (ca. 10 Syncytien) der virusinduzierten Syncytien durch die Behandlung mit der erfindungsgemäßen Verbindung unterdrückt waren.

HIV-1-Protease [2] = biological target: T1, HIV-1-Protease; experiment: HIV-specific protease enzyme assay (purified HIV protease, synthetic peptide substrate, RP-HPLC analysis of cleavage products); assay type: biochemical; conditions: synthetic peptide imitating a Gag precursor cleavage site
[3] = read-out: PBL IC50, HIV-infected normal human blood lymphocytes (PBL's)
[4] = HIV-1-Protease-Inhibition IC50, purified HIV protease
[5] = purified HIV protease, read-out: HIV-1-Protease-Inhibition IC50
[6] = Human immunodeficiency virus 1, Lymphocyte, 72 h, read-out: PBL IC50, HIV-infected normal human blood lymphocytes (PBL's)

NC(=O)C[C@H](NC(=O)c1cnc2ccccc2n1)C(=O)N[C@@H](Cc1ccccc1)[C@H](O)CN1[C@H](C(F)(F)F)C[C@@H]2CCC[C@@H]21 [Beispiel 2]
IC50 (HIV-1-Protease [1]; read-out: HIV-1-Protease-Inhibition IC50, purified HIV protease): 0.017 nM
IC50 (HIV; [3]): 38.5 nM
HIV-1-Protease-Inhibition IC95 (HIV-1-Protease [2]): 3,6 x 10^-11 Mol/l

NC(=O)C[C@H](NC(=O)c1cnc2ccccc2n1)C(=O)N[C@@H](Cc1ccccc1)[C@H](O)CN1[C@H](C(F)(F)F)C[C@@H]2CCC[C@@H]21 [Beispiel 1]
IC50 (HIV-1-Protease [1]; [4]): 0.018 nM
IC50 (HIV; [3]): 81.7 nM
HIV-1-Protease-Inhibition IC95 (HIV-1-Protease [2]): 1,9 x 10^-10 Mol/l

Cc1ccc2nc(C(=O)N[C@@H](CC(N)=O)C(=O)N[C@@H](Cc3ccccc3)[C@H](O)CN3[C@H](C(F)(F)F)C[C@@H]4CCC[C@@H]43)ccc2c1 [Beispiel 10]
HIV-1-Protease-Inhibition IC95 (HIV-1-Protease [2]): 3,1 x 10^-7 Mol/l

NC(=O)C[C@H](NC(=O)COc1ccccc1-c1ccccc1)C(=O)N[C@@H](Cc1ccccc1)[C@H](O)CN1[C@H](C(F)(F)F)C[C@@H]2CCC[C@@H]21 [Beispiel 15]
IC50 (HIV-1-Protease [1]; [5]): 2.2 nM
HIV-1-Protease-Inhibition IC95 (HIV-1-Protease [2]): 2,9 x 10^-8 Mol/l

Cc1cnc(C)c(COC(=O)N[C@@H](CC(N)=O)C(=O)N[C@@H](Cc2ccccc2)[C@H](O)CN2[C@H](C(F)(F)F)C[C@@H]3CCC[C@@H]32)c1 [Beispiel 17]
IC50 (HIV-1-Protease [1]; [5]): 1900 nM
HIV-1-Protease-Inhibition IC95 (HIV-1-Protease [2]): 3,7 x 10^-5 Mol/l

NC(=O)C[C@H](NC(=O)c1ccc2cc(Cl)ccc2n1)C(=O)N[C@@H](Cc1ccccc1)[C@H](O)CN1[C@H](C(F)(F)F)C[C@@H]2CCC[C@@H]21 [Beispiel 13]
HIV-1-Protease-Inhibition IC95 (HIV-1-Protease [2]): 2,5 x 10^-10 Mol/l

NC(=O)C[C@H](NC(=O)c1ccc2ccccc2n1)C(=O)N[C@@H](Cc1ccccc1)[C@H](O)CN1[C@H](C(F)(F)F)C[C@@H]2CCC[C@@H]21 [Beispiel 4, (2R,3S)-3-(Chinolin-2-yl-L-asparaginyl)-amino-1-[(S,S,S)-3-trifluormethyl-2-azabicylco[3.3.0]octan-2-yl}-2-hydroxy-4-phenyl-butan Hydrochlorid]
IC50 (HIV-1-Protease [1]; [4]): 0.6 nM
IC50 (HIV; [3]): 22.5 nM
HIV-1-Protease-Inhibition IC95 (HIV-1-Protease [2]): 3,3 x 10^-8 Mol/l

NC(=O)C[C@H](NC(=O)COc1ccccc1-c1ccccc1)C(=O)N[C@@H](Cc1ccccc1)[C@H](O)CN1[C@H](C(F)(F)F)C[C@@H]2CCC[C@@H]21 [Beispiel 14]
IC50 (HIV-1-Protease [1]; [5]): 3.5 nM
IC50 (HIV; [6]): 600 nM
HIV-1-Protease-Inhibition IC95 (HIV-1-Protease [2]): 1,8 x 10^-7 Mol/l

Cc1ccc2nc(C(=O)N[C@@H](CC(N)=O)C(=O)N[C@@H](Cc3ccccc3)[C@H](O)CN3[C@H](C(F)(F)F)C[C@@H]4CCC[C@@H]43)ccc2c1 [Beispiel 11]
HIV-1-Protease-Inhibition IC95 (HIV-1-Protease [2]): 3,6 x 10^-11 Mol/l

Cc1cc2ncc(C(=O)N[C@@H](CC(N)=O)C(=O)N[C@@H](Cc3ccccc3)[C@H](O)CN3[C@H](C(F)(F)F)C[C@@H]4CCC[C@@H]43)nc2cc1C [Beispiel 8]
HIV-1-Protease-Inhibition IC95 (HIV-1-Protease [2]): 3,2 x 10^-6 Mol/l

Cc1cc2ncc(C(=O)N[C@@H](CC(N)=O)C(=O)N[C@@H](Cc3ccccc3)[C@H](O)CN3[C@H](C(F)(F)F)C[C@@H]4CCC[C@@H]43)nc2cc1C [Beispiel 9]
HIV-1-Protease-Inhibition IC95 (HIV-1-Protease [2]): 2,6 x 10^-9 Mol/l

NC(=O)C[C@H](NC(=O)c1ccc2ccccc2n1)C(=O)N[C@@H](Cc1ccccc1)[C@H](O)CN1[C@H](C(F)(F)F)C[C@@H]2CCC[C@@H]21 [Beispiel 3, (2R,3S)-3-(Chinolin-2-yl-L-asparaginyl)-amino-1-[(S,S,S)-3-trifluormethyl-2-azabicyclo[3.3.0]octan-2-yl}-2-hydroxy-4-phenyl-butan]
IC50 (HIV-1-Protease [1]; [4]): 0.24 nM
IC50 (HIV; [6]): 35 nM
HIV-1-Protease-Inhibition IC95 (HIV-1-Protease [2]): 2,2 x 10^-8 Mol/l

Cc1c(O)cccc1C(=O)N[C@@H](CC(N)=O)C(=O)N[C@@H](Cc1ccccc1)[C@H](O)CN1[C@H](C(F)(F)F)C[C@@H]2CCC[C@@H]21 [Beispiel 16]
IC50 (HIV-1-Protease [1]; [5]): 200 nM
HIV-1-Protease-Inhibition IC95 (HIV-1-Protease [2]): 2,7 x 10^-6 Mol/l

NC(=O)C[C@H](NC(=O)c1ccc2cc(Cl)ccc2n1)C(=O)N[C@@H](Cc1ccccc1)[C@H](O)CN1[C@H](C(F)(F)F)C[C@@H]2CCC[C@@H]21 [Beispiel 12]
HIV-1-Protease-Inhibition IC95 (HIV-1-Protease [2]): 3,7 x 10^-9 Mol/l
